Drawing on US4486432A, “Quinoxalinedione leukotriene release inhibitors” (Eli Lilly and Company, priority 1982, dated 1984), this text covers inhibition for six compounds.

The assay concerns SRS-A release. The assay can be described thus: Inhibition of SRS-A release from sensitized guinea pig lung fragments challenged with ovalbumin (bioassay on guinea pig ileum). The class given is cell-based. The settings on record: Cavia porcellus, read-out: Inhibition of SRS-A Release, Percent Inhibition; for inhibition at 30 µM: Drug Concentration 3 × 10^-5 M; for inhibition at 3 µM: Drug Concentration 3 × 10^-6 M; for inhibition at 10 µM: Drug Concentration 1 × 10^-5 M; for inhibition at 1 µM: Drug Concentration 1 × 10^-6 M. Here is the method:
Male, Hartley guinea pigs, usually 1-2 weeks old were sensitized with respect to ovalbumin by intraperitoneal administration of 0.15 ml. hyperimmune serum obtained from guinea pigs actively sensitized against ovalbumin. After 2 days or more, the animals were decapitated, lungs were excised and perfused through the pulmonary artery with Krebs' bicarbonate solution of the following composition in mmoles/liter: KCl, 4.6; CaCl2.2H2 O, 1.8; KH2 PO4, 1.2; MgSO4. 7H2 O, 1.2; NaCl, 118.2; NaHCO3, 24.8; and dextrose, 10.0.Poorly perfused and bloody areas were discarded. Normal lung was cut into 1 mm. cubes with a McIlwain tissue chopper, washed with Krebs' solution and divided into 400 mg. aliquots. The fragmented tissue was then incubated at 37° C. for 15 minutes in Krebs' solution containing indomethacin to optimize SRS-A release and an appropriate concentration of experimental drug. Antigen (ovalbumin) was then added to make a final concentration of 1×10^-5 g./ml. Fifteen minutes later, the incubation medium was decanted and centrifuged at 3,000×g at 4° C. for 5 minutes. The supernatant solution was collected and assayed for SRS-A using a computerized bioassay that employs the isolated guinea pig ileum (Fleisch et al., J. Pharmacol. Exp. Ther., 209, 238-243, (1979)). Release of SRS-A in the presence of an experimental drug was compared to a control sample and the results expressed as percent inhibition of SRS-A release.

As to `O=C1C=C(Nc2ccccc2F)C(=O)c2nccnc21` [Example 5, 6-(2-fluoroanilino)-5,8-quinoxalinedione], the inhibition at 30 µM stood at 83% and the inhibition at 3 µM was 12%.

`O=C1C=C(Nc2cccc(F)c2)C(=O)c2nccnc21` [Example 7, 6-(3-fluoroanilino)-5,8-quinoxalinedione]: the inhibition at 10 µM was determined as 67%, the inhibition at 1 µM came out at 22%, the inhibition at 30 µM stood at 81% and the inhibition at 3 µM was 48%. Moreover, the inhibition at 0.3 µM (Drug Concentration 3 × 10^-7 M) is 6%.

With `CN(C1=CC(=O)c2nccnc2C1=O)c1ccccc1` [Example 4, 6-(N-methylanilino)-5,8-quinoxalinedione], the inhibition at 10 µM worked out at 18%, the inhibition at 1 µM is 22% and the inhibition at 30 µM worked out at 59%.

For the compound `O=C1C=C(Nc2cccc(Cl)c2)C(=O)c2nccnc21` [Example 6, 6-(3-chloroanilino)-5,8-quinoxalinedione], the inhibition at 30 µM is 71% and the inhibition at 3 µM turned out to be 28%.

As to `O=C1C=C(Nc2ccccc2)C(=O)c2nccnc21` [Example 3, 6-anilino-5,8-quinoxalinedione], the inhibition at 1 µM stood at 8%, the inhibition at 30 µM worked out at 75% and the inhibition at 3 µM came to 22%.

On to `Cc1nc2c(nc1C)C(=O)C(Nc1ccccc1)=CC2=O` [Example 8, 6-anilino-2,3-dimethyl-5,8-quinoxalinedione], for which the inhibition at 1 µM came out at 31% and the inhibition at 3 µM was determined as 40%.
